# Values of other authors, collected in PubChem BioAssay AID1259409 (Chemical Carcinogenesis Research Information System (CCRIS), 2018).
# Test system: rodent chemically induced tumor inhibition, incidence and multiplicity
# Test: CCRIS tumor inhibitor studies
smiles,measurement,setting,value
O=C1O[C@H]([C@@H](O)CO)C(O)=C1O,"tumour outcome (control, treated, inhibition, significance)","Carcinogen: 7,12-DIMETHYLBENZ[A]ANTHRACENE, 57-97-6, Dose [Inhibitor]: 0, 5000 PPM IN DRINKING WATER FOR 5 MO (STUDY DURATION: 5 MO), Route [Inhibitor]: ORAL, Species: RAT, Strain/Sex: SWISS/FEMALE, Target Tissue: Type of Lesion: MAMMARY GLAND: CRIBRIFORM CARCINOMA, Dose [Carcinogen]: 10 MG ONCE, Promoter: NONE USED","85%, 50%, 41%, not calculated"
same,"tumour outcome (control, treated, inhibition, significance)","Carcinogen: 7,12-DIMETHYLBENZ[A]ANTHRACENE, 57-97-6, Dose [Inhibitor]: 0.2% IN 0.25 ML OF 20:80 WATER-ACETONE DAILY FOR 20 D BEGINNING 1 D POST CARCINOGEN TREATMENT (STUDY DURATION: 19 WK), Route [Inhibitor]: DERMAL, Species: MOUSE, Strain/Sex: ICR/FEMALE, Target Tissue: Type of Lesion: SKIN: PAPILLOMA, Dose [Carcinogen]: 0.125 MG IN 0.25 ML ACETONE ONCE, Promoter: CROTON OIL, 8001-28-3","43%, 48%, -12%, not significant"
same,"tumour outcome (control, treated, inhibition, significance)","Carcinogen: 7,12-DIMETHYLBENZ[A]ANTHRACENE, 57-97-6, Dose [Inhibitor]: 1000 UG APPLIED ONCE 5 MIN PRIOR TO CARCINOGEN DOSE (STUDY DURATION: 28 WK), Route [Inhibitor]: DERMAL, Species: MOUSE, Strain/Sex: CD-1/FEMALE, Target Tissue: Type of Lesion: SKIN: PAPILLOMA, Dose [Carcinogen]: 2.56 UG ONCE, Promoter: 12-O-TETRADECANOYLPHORBOL-13-ACETATE, 16561-29-8","82%, 56%, 32%, not calculated"
same,"tumour outcome (control, treated, inhibition, significance)","Carcinogen: 17BETA-ESTRADIOL, 50-28-2, Dose [Inhibitor]: 1% (W/V) IN REVERSED OSMOSIS DEIONIZED DRINKING WATER FOR 103 D STARTING 93 D AFTER START OF STUDY (STUDY DURATION: 196, Route [Inhibitor]: ORAL, Species: HAMSTER, Strain/Sex: SYRIAN/MALE, Target Tissue: Type of Lesion: KIDNEY: CARCINOMA, Dose [Carcinogen]: 90% OF 31 MG PELLET AT START OF STUDY AND 90% OF 45 MG PELLET 3 MO LATER, Promoter: NONE USED","16/23 (70%), 9/19 (47%), 33%, not significant"
same,"tumour outcome (control, treated, inhibition, significance)","Carcinogen: 17BETA-ESTRADIOL, 50-28-2, Dose [Inhibitor]: 1% (W/V) IN REVERSED OSMOSIS DEIONIZED DRINKING WATER FOR FIRST 92 D OF STUDY (STUDY DURATION: 196 D), Route [Inhibitor]: ORAL, Species: HAMSTER, Strain/Sex: SYRIAN/MALE, Target Tissue: Type of Lesion: KIDNEY: CARCINOMA, Dose [Carcinogen]: 90% OF 31 MG PELLET AT START OF STUDY AND 90% OF 45 MG PELLET 3 MO LATER, Promoter: NONE USED","16/23 (70%), 15/17 (88%), -26%, not significant"
same,"tumour outcome (control, treated, inhibition, significance)","Carcinogen: 17BETA-ESTRADIOL, 50-28-2, Dose [Inhibitor]: 1% IN REVERSED OSMOSIS DEIONIZED DRINKING WATER FOR DURATION OF STUDY (STUDY DURATION: 196 D), Route [Inhibitor]: ORAL, Species: HAMSTER, Strain/Sex: SYRIAN/MALE, Target Tissue: Type of Lesion: KIDNEY: CARCINOMA, Dose [Carcinogen]: 90% OF 31 MG PELLET AT START OF STUDY AND 90% OF 45 MG PELLET 3 MO LATER, Promoter: NONE USED","16/23 (70%), 10/33 (30%), 57%, p<0.005"
same,"tumour outcome (control, treated, inhibition, significance)","Carcinogen: AMINOPYRENE, 1606-67-3, SODIUM NITRITE, 7632-00-0, Carcinogen: AMINOPYRENE, 1606-67-3, SODIUM NITRITE, 7632-00-0, Dose [Inhibitor]: 7 G/KG OF DIET FOR DURATION OF STUDY (STUDY DURATION: 40 WK), Route [Inhibitor]: ORAL, Species: RAT, Strain/Sex: SPRAGUE-DAWLEY/MALE, Target Tissue: Type of Lesion: LIVER: TUMORS, Dose [Carcinogen]: AMINOPYRENE 1 G/L AND SODIUM NITRITE 1 G/L IN DRINKING WATER 5 D/WK FOR 40 WK, Promoter: NONE USED","12/37 (32%), 0/39 (0%), 100%, not calculated"
same,"tumour outcome (control, treated, inhibition, significance)","Carcinogen: AMINOPYRENE, 1606-67-3, SODIUM NITRITE, 7632-00-0, Carcinogen: AMINOPYRENE, 1606-67-3, SODIUM NITRITE, 7632-00-0, Dose [Inhibitor]: 7 G/KG OF DIET FOR DURATION OF STUDY (STUDY DURATION: 40 WK), Route [Inhibitor]: ORAL, Species: RAT, Strain/Sex: SPRAGUE-DAWLEY/MALE, Target Tissue: Type of Lesion: LUNG: TUMORS, Dose [Carcinogen]: AMINOPYRENE 1 G/L AND SODIUM NITRITE 1 G/L IN DRINKING WATER 5 D/WK FOR 40 WK, Promoter: NONE USED","25/37 (68%), 13/39 (33%), 51%, not calculated"
same,"tumour outcome (control, treated, inhibition, significance)","Carcinogen: AMINOPYRENE, 1606-67-3, SODIUM NITRITE, 7632-00-0, Carcinogen: AMINOPYRENE, 1606-67-3, SODIUM NITRITE, 7632-00-0, Dose [Inhibitor]: 7 G/KG OF DIET FOR THE DURATION OF STUDY (STUDY DURATION: 40 WK), Route [Inhibitor]: ORAL, Species: RAT, Strain/Sex: SPRAGUE-DAWLEY/MALE, Target Tissue: Type of Lesion: KIDNEY: TUMORS, Dose [Carcinogen]: AMINOPYRINE 1 G/L AND SODIUM NITRITE 1 G/L IN DRINKING WATER 5 D/WK FOR 40 WK, Promoter: NONE USED","10/37 (27%), 7/39 (18%), 33%, not calculated"
same,"tumour outcome (control, treated, inhibition, significance)","Carcinogen: BENZO[A]PYRENE, 50-32-8, Dose [Inhibitor]: 0, 10 MG/ML IN DRINKING WATER FOR 6 WK (STUDY DURATION: 9 WK), Route [Inhibitor]: ORAL, Species: MOUSE, Strain/Sex: NIGP(S)/FEMALE, Target Tissue: Type of Lesion: LUNG: ADENOMA, Dose [Carcinogen]: 0.5 MG INJECTED IN THE SCAPULAR REGION OF NEWBORN MICE ONCE, Promoter: NONE USED","56%, 35%, 38%, not calculated"
same,"tumour outcome (control, treated, inhibition, significance)","Carcinogen: BENZO[A]PYRENE, 50-32-8, Dose [Inhibitor]: 0, 10 MG/ML IN DRINKING WATER FOR 6 WK (STUDY DURATION: 9 WK), Route [Inhibitor]: ORAL, Species: MOUSE, Strain/Sex: NIGP(S)/MALE, Target Tissue: Type of Lesion: LUNG: ADENOMA, Dose [Carcinogen]: 0.5 MG INJECTED IN THE SCAPULAR REGION OF NEWBORN MICE ONCE, Promoter: NONE USED","38%, 24%, 37%, not calculated"
same,"tumour outcome (control, treated, inhibition, significance)","Carcinogen: BENZO[A]PYRENE, 50-32-8, Dose [Inhibitor]: 0.068 MMOL/G IN DIET FOR 5 WK BEGINNING 1 WK PRIOR TO CARCINOGEN DOSE (STUDY DURATION: 21 WK), Route [Inhibitor]: ORAL, Species: MOUSE, Strain/Sex: ICR/HA/FEMALE, Target Tissue: Type of Lesion: FORESTOMACH: TUMOR, Dose [Carcinogen]: 1 MG IN 0.2 ML CORN OIL 2/WK FOR 4 WK, Promoter: NONE USED","100%, 95%, 5%, not significant"
same,"tumour outcome (control, treated, inhibition, significance)","Carcinogen: DIETHYLNITROSAMINE, 55-18-5, Dose [Inhibitor]: 0, 3 G/L IN DRINKING WATER BEGINNING 1 D PRIOR TO FIRST CARCINOGEN DOSE AND CONTINUING TO 2 D POST LAST CARCINOGEN DOSE, Route [Inhibitor]: ORAL, Species: RAT, Strain/Sex: BD6/FEMALE, Target Tissue: Type of Lesion: ESOPHAGUS: TUMOR, Dose [Carcinogen]: 80 MG/KG BW 1/WK FOR 8 WK, Promoter: NONE USED","31%, 28%, 10%, not significant"
